Assay results reported in paper PMC10880893, “Structures of the holoenzyme TglHI required for 3-thiaglutamate biosynthesis” (Structure (London, England : 1993), 2023).
“Also recorded” adds a separate entry of the source.

Experiments:
TglHI = type: biochemical, Pseudomonas syringae pv. maculicola ES4326
Protocol: TglHI protein and H2O2 (or EDTA) were initially incubated together for 10 min, and then protein was purified by size exclusion chromatography to remove excess H2O2 (or EDTA). The reaction between the H2O2 (EDTA)-treated TglHI and minimum substrate analog of TglA-Cys, β-NAD^+, and FDH was then monitored for the levels of NADH.
(A) In vitro activity assay of the modification of the minimum substrate analog of TglA-Cys by TglHI with treatment of H2O2 in the presence of formate dehydrogenase (FDH) and β-NAD+. NADH formation was […]
(B) In vitro activity assay of the modification of the minimum substrate analog of TglA-Cys by TglHI with […]
treatment of EDTA (5 mM, 10 mM, 20 mM).

[1] = biological target: TglHI holoenzyme (Pseudomonas syringae pv. maculicola ES4326); assay: ITC
[2] = Solubility on (co-)expression in E. coli, SDS-PAGE; type: physicochemical; conditions: expression in E. coli BL21, SDS-PAGE
Protocol: The tglH (NCBI accession No. WP_007252215.1) and tglI (NCBI accession No. WP_007252216.1) genes from Pseudomonas syringae pv. maculicola (P. syringae) ES4326 were codon-optimized for expression in E. coli (the optimized sequences are provided in KRT) and subcloned into the pRSFDuet-1 vector. E. coli BL21 (DE3) cells containing the tglHI-pRSFDuet-1 plasmid were grown in Luria broth (LB) medium at 37 °C and 220 rpm to an optical density at 600 nm (OD600) of 0.6. Fe-containing TglHI proteins were obtained by the addition of 1 mM (NH4)2Fe(SO4)2 in LB medium. Subsequently, cultures were induced at 16 °C with the addition of isopropyl β-D-thiogalactoside (IPTG) at a final concentration of 0.2 mM. […] After cell lysis, lysates were centrifuged at 18000 rpm for 30 min to obtain the supernatant containing the target protein. […] The purity of the purified proteins was assessed using sodium dodecyl sulfate‒polyacrylamide gel electrophoresis (SDS‒PAGE) and they were flash-frozen with liquid nitrogen for subsequent crystallization and biochemical analysis. […]
(B) The tglH and tglI genes were inserted into the pRSF-DuET-1 vector for co-expression, and the complexes were purified through nickel affinity columns. […] The proteins were then eluted and analyzed by SDS-PAGE. […]

Molecule: O=C(O)CN(CCN(CC(=O)O)CC(=O)O)CC(=O)O [EDTA]
- TglHI activity after treatment with EDTA (TglHI; EDTA 5 mM, 10 mM, 20 mM, 10 min incubation, then size exclusion chromatography): merely attenuated the enzymatic activity of TglHI instead of abolishing the activity
- effect of higher EDTA concentrations on TglHI (TglHI; higher concentrations than 5, 10, 20 mM): precipitation

Molecule: OO [H2O2]
- TglHI activity after pretreatment with H2O2 (TglHI; 10 min incubation, then size exclusion chromatography, NADH at 340 nm): background; also recorded: loss of TglHI activity

Molecule: TglA-Cys analog containing the C-terminal 19 amino acids (peptide)
- Kd [1]: 8.5 µM

B1: TglI: recruitment subunit with RRE domain (protein)
chain: MEAEQVWKLWRRVLRDERLQAQLFSATDATHWLSGFSESESKILSVYAQQFDRVKWFVENYQFRLVNSFLNALETGAPLSLRALLHINVDLNAQSKAFLRDRQWRDYGPQVYTYCEDVLGFLAEADELQGYPEILDLMRLERESVRLYRGLVDPESLPADNRYQRTSMARLYETRFALSGWLRQKDQLGLTRLPESTEHVLIYLPTLQARHKFTLINAQAARLYNCLEQPQSAAGLFMLINSDSASVPGSADLALLDRLEQLNAIRKPL
- solubility of protein / complex [2]: insoluble when expressed alone and only soluble when co-expressed with TglH

B2: TglH: Fe-dependent DUF692 catalytic subunit (protein)
chain: MPDFVKPAPIGVGIQYNPEILDWFPFEDIQVDILEILLDNIMAPMDGPQIIKPSAQAMIERLGQKFTLLAHSNYGCDFGFSALEETAAVQRHVPLAKMLNSPWVANHCFYGDQSWLDIWSSPIQFSAAEVARCADRAQSLQTLYGMPLAHENAAYYLECPGAEMREAEFLARLVQRSGTFLHLDLHNIYTNHLNLKGFDLKDYMDTLPLDKVISVHLAGGSWHGGLYHDWHDACVPEPVWDLYEDLLSRAQPSAVILEYQGQAHHAQTRIMDASDESMIVRDVQRAQAIWSRYNRHPQERQYGS
- solubility of protein / complex [2]: expressed partially in soluble form
